Measurements taken from patent US6924302B2, “Substituted triazole diamine derivatives as kinase inhibitors” (Ortho McNeil Pharmaceutical, Inc., priority 2000, dated 2005).

Key:
[1] = test system: SK-OV-3 ovarian adenocarcinoma; experiment: Inhibition of Cell Proliferation (14C-thymidine incorporation), SK-OV-3; type: cell-based; conditions: Homo sapiens, SK-OV-3 cell line
Procedure: (§1) The ability of a test compound to inhibit the proliferation of cell growth was determined by measuring incorporation of ^14C-labelled thymidine into newly synthesized DNA within the cells. […] Cells were trypsinized and counted and 3000-8000 cells were added to each well of a 96-well CytoStar tissue culture treated scintillating microplate (Amersham #RPNQ0160) in complete medium in a volume of 100 μl. Cells were incubated for 24 hours in complete medium at 37° C. in an atmosphere containing 5% CO2. Next, 1 μl of test compound in 100% DMSO was added to the wells of the plate. DMSO only was added to control wells. Cells were incubated for 24 more hours in complete medium at 37° C. in an atmosphere containing 5% CO2. […] The plate was incubated for 24 hours at 37° C. plus 5% CO2 in drug plus ^14C-thymidine. The contents of the plate were discarded into a ^14C radioactive waste container by inverting the plate and the plate was washed twice with 200 μl PBS. 200 μl of PBS is added to each well. […] The degree of methyl ^14C-thymidine incorporation was quantified on a Packard Top Count.

FGF-R2 = FGF-R2 (Homo sapiens, UniProt P21802); experiment: Kinase Selectivity Assay FGF-R2; type: biochemical; conditions: Tables 2a-2k
FGF-R2, sequence (P21802 22-821, species assumed): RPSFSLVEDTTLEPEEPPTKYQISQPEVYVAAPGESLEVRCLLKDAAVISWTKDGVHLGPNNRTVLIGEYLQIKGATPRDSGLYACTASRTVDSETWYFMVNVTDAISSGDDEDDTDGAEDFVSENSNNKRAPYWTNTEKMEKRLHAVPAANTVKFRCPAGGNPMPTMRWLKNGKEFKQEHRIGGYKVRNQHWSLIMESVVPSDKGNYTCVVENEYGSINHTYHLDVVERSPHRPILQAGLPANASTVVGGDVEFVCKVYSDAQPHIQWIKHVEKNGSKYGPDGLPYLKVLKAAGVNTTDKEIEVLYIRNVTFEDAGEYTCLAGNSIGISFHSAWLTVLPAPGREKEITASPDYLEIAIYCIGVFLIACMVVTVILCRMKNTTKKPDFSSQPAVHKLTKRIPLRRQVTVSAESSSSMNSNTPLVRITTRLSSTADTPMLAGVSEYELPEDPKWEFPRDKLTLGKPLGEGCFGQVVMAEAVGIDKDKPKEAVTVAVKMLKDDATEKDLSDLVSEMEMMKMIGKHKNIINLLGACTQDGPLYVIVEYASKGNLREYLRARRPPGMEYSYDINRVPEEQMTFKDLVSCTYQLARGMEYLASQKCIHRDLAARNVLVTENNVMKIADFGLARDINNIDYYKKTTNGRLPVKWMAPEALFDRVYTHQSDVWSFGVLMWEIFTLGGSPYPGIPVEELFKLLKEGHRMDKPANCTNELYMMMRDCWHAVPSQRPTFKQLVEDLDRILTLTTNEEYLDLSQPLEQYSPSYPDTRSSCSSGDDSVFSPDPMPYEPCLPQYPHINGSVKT
Procedure: Assays to test compound inhibition of other kinases were preformed using methods that measure the amount of phosphorylation of a biotinylated peptide substrate. Biotinylated peptide substrates were selected from the literature as appropriate for the enzyme being evaluated. […] Assay conditions vary slightly for each protein kinase, for example, insulin receptor kinase requires 10 mM MnCl2 for activity and Calmodulin-dependent protein kinase requires calmodulin and 10 mM CaCl2. These assay conditions are known in the art. The reaction mixture was dispensed into the wells of a streptavidin coated Flashplate and 1 μl drug stock in 100% DMSO was added to a 100 μl reaction volume resulting in a final concentration of 1% DMSO on the reaction. Enzyme was diluted in 50 mM Tris-HCl pH=8.0, 0.1% BSA and add to each well. The reaction was incubated for one hour at 30° C. in the presence of compound. After one hour the reaction mix was aspirated from the plate and the plate was washed with PBS containing 100 mM EDTA. The plate was read on a scintillation counter to determine ^33P-γ-ATP incorporated into the immobilized peptide. Test compounds were assayed in duplicate at 8 concentrations [100 uM, 10 uM, 1 uM, 100 nM, 10 nM, 1 nM, 100 pM, 10 pM]. A maximum and minimum signal for the assay was determined on each plate. The IC50 was calculated from the dose response curve of the percent inhibition of the maximum signal in the assay according to the formula [max signal—background/test compound signal—background (100)=% inhibition] by graphing the percent inhibition against the log concentration of test compound. Known inhibitor compounds appropriate for the kinase being assayed were also included on each plate.

MDA-MB-231 = experiment: Inhibition of Cell Proliferation (14C-thymidine incorporation), MDA-MB-231; type: cell-based; conditions: Homo sapiens, MDA-MB-231 cell line
Procedure: as §1

[2] = molecular target: T1, CDK2 in complex with cyclin A (Homo sapiens, UniProt P24941); experiment: Kinase Selectivity Assay CDK2; type: biochemical; conditions: Table 1
T1 construct: purchased Upstate Biotech
How it was run: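 Reactions ran one hour at 30° C in 1% DMSO with enzyme diluted in 50 mM Tris-HCl pH 8.0, 0.1% BSA. Scintillation counting read ^33P incorporated into immobilized biotinylated peptide.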

## Nc1nc(Nc2ccc(S(N)(=O)=O)cc2)nn1C(=O)c1sccc1F [Cpd 16, 4-[[5-amino-1-[(3-fluoro-2-thienyl)carbonyl]-1H-1,2,4-triazol-3-yl]amino]-benzenesulfonamide]
[1]
  IC50: 2110 nM

## CCc1ccc(C(=O)n2nc(Nc3ccc(S(=O)(=O)NC)cc3)nc2N)s1 [Cpd 84, 4-[[5-amino-1-[(5-ethyl-2-thienyl)carbonyl]-1H-1,2,4-triazol-3-yl]amino]-N-methyl-benzenesulfonamide]
FGF-R2
  IC50: 300 nM
[1]
  IC50: 461 nM

## Nc1nc(Nc2ccc(S(N)(=O)=O)cc2)nn1C(=O)c1c(F)cccc1F [Cpd 1, 4-[[5-amino-1-(2,6-difluorobenzoyl)-1H-1,2,4-triazol-3-yl]amino]-benzenesulfonamide]
[1]
  IC50: 750 nM
MDA-MB-231
  IC50: 587 nM

## Cc1ccsc1C(=O)n1nc(Nc2ccc(S(=O)(=O)NCCN(C)C)cc2)nc1N [Cpd 104, 4-[[5-amino-1-[(3-methyl-2-thienyl)carbonyl]-1H-1,2,4-triazol-3-yl]amino]-N-[2-(dimethylamino)ethyl]-benzenesulfonamide]
FGF-R2
  IC50: 200 nM
[2]
  IC50: 1 nM

## Cc1ccsc1C(=O)n1nc(Nc2ccc(N3CCNC3=O)cc2)nc1N [Cpd 113, 1-[4-[[5-amino-1-[(3-methyl-2-thienyl)carbonyl]-1H-1,2,4-triazol-3-yl]amino]phenyl]-2-imidazolidinone]
[1]
  IC50: 281 nM

## CC(O)c1ccc(F)c(C(=O)n2nc(Nc3ccc(S(N)(=O)=O)cc3)nc2N)c1F (stereo not drawn) [Cpd 58, 4-[[5-amino-1-[2,6-difluoro-3-(1-hydroxyethyl)benzoyl]-1H-1,2,4-triazol-3-yl]amino]-benzenesulfonamide]
FGF-R2
  IC50: 96 nM

## Cc1nc(C)c(C(=O)n2nc(Nc3ccc(S(N)(=O)=O)cc3)nc2N)s1 [Cpd 34, 4-[[5-amino-1-[(2,4-dimethyl-5-thiazolyl)carbonyl]-1H-1,2,4-triazol-3-yl]amino]-benzenesulfonamide]
MDA-MB-231
  IC50: 898 nM

## Cc1cc(C)c(C(=O)n2nc(Nc3ccc(S(=O)(=O)Nc4ccccn4)cc3)nc2N)s1 [Cpd 120]
[2]
  IC50: 9 nM

## CN1CCN(c2ccc(Nc3nc(N)n(C(=O)c4c(F)cccc4F)n3)cc2)CC1 [Cpd 71, 1-(2,6-difluorobenzoyl)-N^3-[4-(4-methyl-1-piperazinyl)phenyl]-1H-1,2,4-triazole-3,5-diamine]
FGF-R2
  IC50: 441 nM

## CNS(=O)(=O)c1ccc(Nc2nc(N)n(C(=O)c3sccc3C)n2)cc1 [Cpd 82, 4-[[5-amino-1-[(3-methyl-2-thienyl)carbonyl]-1H-1,2,4-triazol-3-yl]amino]-N-methyl-benzenesulfonamide]
FGF-R2
  IC50: 89 nM
[1]
  IC50: 921 nM

## Nc1nc(Nc2ccc(N3CCCS3(=O)=O)cc2)nn1C(=O)c1c(F)cccc1F [Cpd 117]
[2]
  IC50: 7 nM

## Nc1nc(Nc2ccc(S(N)(=O)=O)cc2)nn1C(=O)c1ccsc1 [Cpd 30, 4-[[5-amino-1-(3-thienylcarbonyl)-1H-1,2,4-triazol-3-yl]amino]-benzenesulfonamide]
[1]
  IC50: 5750 nM

## Nc1nc(Nc2ccc(S(N)(=O)=O)cc2)nn1C(=O)C1CCCC1 [Cpd 38, 4-[[5-amino-1-(cyclopentylcarbonyl)-1H-1,2,4-triazol-3-yl]amino]-benzenesulfonamide]
MDA-MB-231
  IC50: 6760 nM

## Cc1ccsc1C(=O)n1nc(Nc2ccc(N3CCCS3(=O)=O)cc2)nc1N [Cpd 116, N^3-[4-(1,1-dioxido-2-isothiazolidinyl)phenyl]-1-[(3-methyl-2-thienyl)carbonyl]-1H-1,2,4-triazole-3,5-diamine]
[2]
  IC50: 1 nM

## Cc1cc(C)c(C(=O)n2nc(Nc3ccc(NS(C)(=O)=O)cc3)nc2N)s1 [Cpd 108, N-[4-[[5-amino-1-[(3,5-dimethyl-2-thienyl)carbonyl]-1H-1,2,4-triazol-3-5 yl]amino]phenyl]-methanesulfonamide]
FGF-R2
  IC50: 307 nM
[2]
  IC50: 12 nM

## Nc1nc(Nc2ccc(S(N)(=O)=O)cc2)nn1C(=O)C1CCCCC1 [Cpd 39, 4-[[5-amino-1-(cyclohexylcarbonyl)-1H-1,2,4-triazol-3-yl]amino]-benzenesulfonamide]
MDA-MB-231
  IC50: 2910 nM

## Cc1ccc(F)c(C(=O)n2nc(Nc3ccc(S(N)(=O)=O)cc3)nc2N)c1Cl [Cpd 69, 4-[[5-amino-1-(2-chloro-6-fluoro-3-methylbenzoyl)-1H-1,2,4-triazol-3-yl]amino]-benzenesulfonamide]
FGF-R2
  IC50: 365 nM

## Nc1nc(Nc2ccc(S(=O)(=O)N3CCCCC3)cc2)nn1C(=O)c1cccs1 [Cpd 23, N^3-[4-(1-piperidinylsulfonyl)phenyl]-1-(2-thienylcarbonyl)-1H-1,2,4-triazole-3,5-diamine]
[1]
  IC50: 1420 nM
MDA-MB-231
  IC50: 868 nM

## CCc1ccc(C(=O)n2nc(Nc3ccc(S(N)(=O)=O)cc3)nc2N)s1 [Cpd 32, 4-[[5-amino-1-[(5-ethyl-2-thienyl)carbonyl]-1H-1,2,4-triazol-3-yl]amino]-benzenesulfonamide]
MDA-MB-231
  IC50: 131 nM

## CCc1ccc(C(=O)n2nc(Nc3ccc(S(=O)(=O)NCCN(C)C)cc3)nc2N)s1 [Cpd 103, 4-[[5-amino-1-[(5-ethyl-2-thienyl)carbonyl]-1H-1,2,4-triazol-3-yl]amino]-N-[2-(dimethylamino)ethyl]-benzenesulfonamide]
FGF-R2
  IC50: 170 nM
[2]
  IC50: 1 nM

## Nc1nc(Nc2ccc(S(N)(=O)=O)cc2)nn1C(=O)c1sccc1Cl [Cpd 17, 4-[[5-amino-1-[(3-chloro-2-thienyl)carbonyl]-1H-1,2,4-triazol-3-yl]amino]-benzenesulfonamide]
[1]
  IC50: 3900 nM

## Cc1ccc(F)c(C(=O)n2nc(N)nc2Nc2ccc(S(N)(=O)=O)cc2)c1F [Cpd 123, 4-[[3-amino-1-(2,6-difluoro-3-methylbenzoyl)-1H-1,2,4-triazol-5-yl]amino]-benzenesulfonamide]
[2]
  IC50: 31 nM

## CNS(=O)(=O)c1ccc(Nc2nc(N)n(C(=O)c3c(F)ccc(C)c3F)n2)cc1 [Cpd 81, 4-[[5-amino-1-(2,6-difluoro-3-methylbenzoyl)-1H-1,2,4-triazol-3-yl]amino]-N-methyl-benzenesulfonamide]
FGF-R2
  IC50: 268 nM
[1]
  IC50: 348 nM
[2]
  IC50: 1 nM

## Nc1nc(Nc2ccc(S(=O)(=O)Nc3ccccn3)cc2)nn1C(=O)c1c(F)cccc1F [Cpd 118, 4-[[5-amino-1-(2,6-difluorobenzoyl)-1H-1,2,4-triazol-3-yl]amino]-N-(2-pyridinyl)-benzenesulfonamide]
[2]
  IC50: 21 nM

## Nc1nc(Nc2ccc(S(N)(=O)=O)cc2)nn1C(=O)c1c(F)cccc1Cl [Cpd 70, 4-[[5-amino-1-(2-chloro-6-fluorobenzoyl)-1H-1,2,4-triazol-3-yl]amino]-benzenesulfonamide]
FGF-R2
  IC50: 273 nM

## Nc1nc(Nc2ccc(S(N)(=O)=O)cc2)nn1C(=O)c1sccc1Br [Cpd 35, 4-[[5-amino-1-[(3-bromo-2-thienyl)carbonyl]-1H-1,2,4-triazol-3-yl]amino]-benzenesulfonamide]
MDA-MB-231
  IC50: 1140 nM

## Nc1nc(Nc2ccc(S(N)(=O)=O)cc2)nn1C(=O)c1cccs1 [Cpd 14, 4-[[5-amino-1-(2-thienylcarbonyl)-1H-1,2,4-triazol-3-yl]amino]-benzenesulfonamide]
FGF-R2
  IC50: 27 nM
[1]
  IC50: 727 nM
MDA-MB-231
  IC50: 756 nM

## CNS(=O)(=O)c1ccc(Nc2nc(N)n(C(=O)c3c(F)cccc3F)n2)cc1 [Cpd 80, 4-[[5-amino-1-(2,6-difluorobenzoyl)-1H-1,2,4-triazol-3-yl]amino]-N-methyl-benzenesulfonamide]
[1]
  IC50: 16300 nM
